Assay results reported in PubChem BioAssay AID248 (DTP/NCI, 2004).
Values joined by “and” are separate entries in the source; they are usually repeats but may differ in a detail not shown here. Identical values can stand only once. Inconclusive results and toxic doses are left out. No stated cut-off is given here; in the data, active means T/C of 150% or more; inactive means T/C below 125%.

System: L1210 leukemia ip in BDF1 mice, survival T/C
Assay: NCI In Vivo Anticancer Drug Screen. Data for tumor model L1210 Leukemia (intraperitoneal) in B6D2F1 (BDF1) mice
Conditions: higher = longer survival
In short: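 Transplanted-tumor mice were given test agent; controls received vehicle only. Survival readings from the two groups were divided (treated over control).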

Measured: T/C

COc1cccc2c1C(=O)c1c(O)c3c(c(O)c1C2=O)C[C@@](O)(C(C)=O)C[C@@H]3OC1CC(N)C(O)C(C)O1 (stereo partly specified)
inactive: endpoint: mean survival time, dose: 0.05 mg/kg/injection, schedule: Q01DX009 (ip), vehicle: saline 105 % of control | endpoint: mean survival time, dose: 0.1 mg/kg/injection, schedule: Q01DX015 (ip), vehicle: water 104 % of control | endpoint: mean survival time, dose: 0.1 mg/kg/injection, schedule: Q02DX008 (ip), vehicle: water 97 % of control | endpoint: mean survival time, dose: 0.14 mg/kg/injection, schedule: Q04DX002 (ip), vehicle: saline 104 % of control and 105 % of control | endpoint: mean survival time, dose: 0.14 mg/kg/injection, schedule: Q## X004 (ip), vehicle: water 103 % of control | endpoint: mean survival time, dose: 0.15 mg/kg/injection, schedule: Q02DX008 (ip), vehicle: water 106 % of control | endpoint: mean survival time, dose: 0.25 mg/kg/injection, schedule: Q04DX003 (ip), vehicle: water 104 % of control | endpoint: mean survival time, dose: 0.27 mg/kg/injection, schedule: Q04DX002 (ip), vehicle: saline 94 % of control | endpoint: mean survival time, dose: 0.54 mg/kg/injection, schedule: Q04DX002 (ip), vehicle: saline 100 % of control | endpoint: mean survival time, dose: 1.0 mg/kg/injection, schedule: Q03HX024 (ip), vehicle: water 103 % of control | endpoint: mean survival time, dose: 1.0 mg/kg/injection, schedule: Q04DX005 (ip), vehicle: saline 105 % of control | endpoint: mean survival time, dose: 1.3 mg/kg/injection, schedule: Q02DX005 (ip), vehicle: saline 97 % of control | endpoint: mean survival time, dose: 1.8 mg/kg/injection, schedule: Q## X032 (ip), vehicle: water 95 % of control | endpoint: mean survival time, dose: 2.0 mg/kg/injection, schedule: Q02DX005 (ip), vehicle: saline 102 % of control | endpoint: mean survival time, dose: 2.0 mg/kg/injection, schedule: Q02DX009 (ip), vehicle: saline 102 % of control | endpoint: mean survival time, dose: 2.0 mg/kg/injection, schedule: Q03HX024 (ip), vehicle: water 100 % of control | endpoint: mean survival time, dose: 2.7 mg/kg/injection, schedule: Q## X032 (ip), vehicle: water 100 % of control | endpoint: mean survival time, dose: 3.33 mg/kg/injection, schedule: Q01DX Z (ip), vehicle: saline 105 % of control | endpoint: mean survival time, dose: 3.95 mg/kg/injection, schedule: Q01DX Z (oral), vehicle: saline 101 % of control | endpoint: mean survival time, dose: 4.0 mg/kg/injection, schedule: Q01DX003 (ip), vehicle: saline 103 % of control | endpoint: mean survival time, dose: 4.0 mg/kg/injection, schedule: Q01DX005 (ip), vehicle: saline 102 % of control | endpoint: mean survival time, dose: 4.0 mg/kg/injection, schedule: Q01DX010 (ip), vehicle: saline 92 % of control and 103 % of control | endpoint: mean survival time, dose: 4.0 mg/kg/injection, schedule: Q01DX014 (ip), vehicle: saline 100 % of control | endpoint: mean survival time, dose: 4.0 mg/kg/injection, schedule: Q04DX005 (ip), vehicle: saline 106 % of control | endpoint: mean survival time, dose: 4.0 mg/kg/injection, schedule: Q06HX004 (ip), vehicle: water 102 % of control | endpoint: mean survival time, dose: 4.0 mg/kg/injection, schedule: Q## X Z (ip), vehicle: water 104 % of control | endpoint: mean survival time, dose: 5.0 mg/kg/injection, schedule: Q01DX009 (oral), vehicle: saline 104 % of control | endpoint: mean survival time, dose: 5.0 mg/kg/injection, schedule: Q01DX Z (ip), vehicle: saline 95 % of control | endpoint: mean survival time, dose: 5.92 mg/kg/injection, schedule: Q01DX Z (oral), vehicle: saline 106 % of control | endpoint: mean survival time, dose: 6.0 mg/kg/injection, schedule: Q01DX014 (ip), vehicle: saline 105 % of control | endpoint: mean survival time, dose: 6.25 mg/kg/injection, schedule: Q01DX009 (ip), vehicle: saline 95 % of control | endpoint: mean survival time, dose: 8.0 mg/kg/injection, schedule: Q01DX001 (ip), vehicle: water 98 % of control | endpoint: mean survival time, dose: 8.0 mg/kg/injection, schedule: Q01DX015 (ip), vehicle: saline 103 % of control | endpoint: mean survival time, dose: 8.88 mg/kg/injection, schedule: Q01DX001 (ip), vehicle: saline 105 % of control | endpoint: mean survival time, dose: 8.88 mg/kg/injection, schedule: Q01DX Z (oral), vehicle: saline 100 % of control | endpoint: mean survival time, dose: 9.0 mg/kg/injection, schedule: Q## X032 (ip), vehicle: water 104 % of control | endpoint: mean survival time, dose: 10.0 mg/kg/injection, schedule: Q04DX003 (ip), vehicle: water 104 % of control | endpoint: mean survival time, dose: 12.0 mg/kg/injection, schedule: Q02DX008 (ip), vehicle: saline 102 % of control | endpoint: mean survival time, dose: 12.5 mg/kg/injection, schedule: Q01DX001 (oral), vehicle: water 103 % of control | endpoint: mean survival time, dose: 13.0 mg/kg/injection, schedule: Q## X004 (ip), vehicle: saline 96 % of control | endpoint: mean survival time, dose: 13.3 mg/kg/injection, schedule: Q01DX001 (ip), vehicle: saline 94 % of control and 95 % of control | endpoint: mean survival time, dose: 13.3 mg/kg/injection, schedule: Q01DX Z (oral), vehicle: saline 98 % of control | endpoint: mean survival time, dose: 13.33 mg/kg/injection, schedule: Q#B X Z (oral), vehicle: water 103 % of control | endpoint: mean survival time, dose: 20.0 mg/kg/injection, schedule: Q01DX001 (ip), vehicle: water 95 % of control | endpoint: mean survival time, dose: 20.0 mg/kg/injection, schedule: Q01DX Z (oral), vehicle: saline 106 % of control | endpoint: mean survival time, dose: 25.0 mg/kg/injection, schedule: Q01DX001 (oral), vehicle: water 94 % of control | endpoint: mean survival time, dose: 25.0 mg/kg/injection, schedule: Q04DX002 (ip), vehicle: saline 97 % of control | endpoint: mean survival time, dose: 30.0 mg/kg/injection, schedule: Q01DX001 (ip), vehicle: saline 95 % of control | endpoint: mean survival time, dose: 30.0 mg/kg/injection, schedule: Q01DX Z (oral), vehicle: saline 102 % of control | endpoint: mean survival time, dose: 45.0 mg/kg/injection, schedule: Q01DX Z (oral), vehicle: saline 102 % of control | endpoint: mean survival time, dose: 50.0 mg/kg/injection, schedule: Q01DX001 (oral), vehicle: water 97 % of control | endpoint: mean survival time, dose: 80.0 mg/kg/injection, schedule: Q01DX010 (oral), vehicle: saline 103 % of control | endpoint: mean survival time, dose: 80.0 mg/kg/injection, schedule: Q07DX Z (oral), vehicle: water 97 % of control | endpoint: mean survival time, dose: 100.0 mg/kg/injection, schedule: Q01DX001 (oral), vehicle: water 100 % of control | endpoint: mean survival time, dose: 160.0 mg/kg/injection, schedule: Q07DX Z (oral), vehicle: water 101 % of control | endpoint: median survival time, dose: 0.05 mg/kg/injection, schedule: Q01DX001 (ip), vehicle: saline 100 % of control | endpoint: median survival time, dose: 0.2 mg/kg/injection, schedule: Q01DX001 (ip), vehicle: saline 94 % of control and 100 % of control | endpoint: median survival time, dose: 0.28 mg/kg/injection, schedule: Q03HX008 (ip), vehicle: water 105 % of control | endpoint: median survival time, dose: 0.8 mg/kg/injection, schedule: Q01DX001 (ip), vehicle: saline 100 % of control | endpoint: median survival time, dose: 1.75 mg/kg/injection, schedule: Q04DX003 (ip), vehicle: water 94 % of control | endpoint: median survival time, dose: 1.8 mg/kg/injection, schedule: Q01DX005 (ip), vehicle: water 105 % of control | endpoint: median survival time, dose: 2.0 mg/kg/injection, schedule: Q01DX001 (iv), vehicle: water 99 % of control | endpoint: median survival time, dose: 2.0 mg/kg/injection, schedule: Q01DX005 (ip), vehicle: other 106 % of control | endpoint: median survival time, dose: 2.0 mg/kg/injection, schedule: Q03HX008 (ip), vehicle: water 94 % of control | endpoint: median survival time, dose: 2.6 mg/kg/injection, schedule: Q04DX003 (ip), vehicle: water 105 % of control | endpoint: median survival time, dose: 3.0 mg/kg/injection, schedule: Q01DX005 (ip), vehicle: water 100 % of control | endpoint: median survival time, dose: 3.0 mg/kg/injection, schedule: Q04DX003 (sc), vehicle: water 99 % of control and 100 % of control | endpoint: median survival time, dose: 3.9 mg/kg/injection, schedule: Q01DX001 (ip), vehicle: water 100 % of control | endpoint: median survival time, dose: 3.9 mg/kg/injection, schedule: Q04DX003 (ip), vehicle: water 100 % of control | endpoint: median survival time, dose: 4.0 mg/kg/injection, schedule: Q01DX001 (ip), vehicle: saline 106 % of control | endpoint: median survival time, dose: 4.0 mg/kg/injection, schedule: Q01DX001 (iv), vehicle: water 102 % of control | endpoint: median survival time, dose: 5.0 mg/kg/injection, schedule: Q01DX017 (ip), vehicle: water 105 % of control | endpoint: median survival time, dose: 5.0 mg/kg/injection, schedule: Q04DX003 (ip), vehicle: Klucel (hydroxypropylcellulose) (HPC) 105 % of control | endpoint: median survival time, dose: 5.9 mg/kg/injection, schedule: Q01DX001 (ip), vehicle: water 105 % of control | endpoint: median survival time, dose: 5.9 mg/kg/injection, schedule: Q04DX003 (ip), vehicle: water 100 % of control | endpoint: median survival time, dose: 8.0 mg/kg/injection, schedule: Q01DX001 (iv), vehicle: water 102 % of control | endpoint: median survival time, dose: 8.3 mg/kg/injection, schedule: Q04DX003 (ip), vehicle: Klucel (hydroxypropylcellulose) (HPC) 94 % of control and 97 % of control | endpoint: median survival time, dose: 8.9 mg/kg/injection, schedule: Q01DX001 (ip), vehicle: water 94 % of control | endpoint: median survival time, dose: 10.0 mg/kg/injection, schedule: Q01DX001 (ip), vehicle: water 97 % of control and 100 % of control | endpoint: median survival time, dose: 10.0 mg/kg/injection, schedule: Q04DX003 (ip), vehicle: water 100 % of control | endpoint: median survival time, dose: 13.3 mg/kg/injection, schedule: Q01DX001 (ip), vehicle: water 100 % of control | endpoint: median survival time, dose: 25.0 mg/kg/injection, schedule: Q04DX003 (sc), vehicle: water 100 % of control and 102 % of control | endpoint: median survival time, dose: 39.0 mg/kg/injection, schedule: Q04DX003 (sc), vehicle: water 99 % of control and 100 % of control

O=C(NNC(=O)c1ccccc1)c1ccccc1
inactive: endpoint: mean survival time, dose: 100.0 mg/kg/injection, schedule: Q04DX002 (ip), vehicle: Klucel (hydroxypropylcellulose) (HPC) 101 % of control | endpoint: mean survival time, dose: 200.0 mg/kg/injection, schedule: Q04DX002 (ip), vehicle: Klucel (hydroxypropylcellulose) (HPC) 101 % of control | endpoint: mean survival time, dose: 400.0 mg/kg/injection, schedule: Q04DX002 (ip), vehicle: Klucel (hydroxypropylcellulose) (HPC) 101 % of control
